Data reported in patent publication US8158621B2, “Methods of treating or preventing autoimmune diseases with 2,4-pyrimidinediamine compounds” (Rigel Pharmaceuticals, Inc., priority 2002, dated 2012).
pIC50: −log10 of the molar value.

Test system: Human Jurkat T-cells (clone N)
Experiment: Jurkat T-cell activation (anti-TCR, CD69 upregulation)
Assay type: cell-based
Details: not given
Method in brief: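 Readout is CD69 upregulation by flow cytometry (anti-CD69-APC, 20 min at 4 °C) after 20 h anti-TCR (C305, 500 ng/ml) stimulation at 37 °C.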

Going from Oc1cccc(Nc2ncc(F)c(Nc3cccc(O)c3)n2)c1 [Compound R926461] to CSc1nc(Nc2cccc(O)c2)nc(Nc2cccc(O)c2)c1Cl [Compound R926595], the pIC50 falls from 5.47 to less than 5.00. The first is the more potent here.

Cc1cc(Nc2ncc(F)c(Nc3ccc(O)c(C)c3)n2)ccc1O [Compound R926469] and O=C(O)COc1ccc(Nc2ncc(F)c(Nc3cccc(O)c3)n2)cc1 [Compound R926564] cannot be ordered by pIC50: less than 5.00 for the first, less than 5.00 for the second.

Going from CSc1nc(Nc2ccc3c(c2)OCCO3)nc(Nc2ccc3c(c2)OCCO3)c1Cl [Compound R926475] to O=C(c1cc2cc(Nc3ncc(F)c(Nc4ccc5c(c4)OCCO5)n3)ccc2o1)N1CCOCC1 [Compound R926492], the pIC50 rises from less than 5.00 to 5.48. The second is the more potent here.

First: N#CCOc1ccc(Nc2ncc(F)c(Nc3ccc4c(c3)OCCO4)n2)cc1 [Compound R926480]
Second: CNCCOc1cccc(Nc2ncc(F)c(Nc3ccc4c(c3)OCCO4)n2)c1 [Compound R926510]
The pIC50 of the first is lower: less than 5.00 for the first, 6.91 for the second.

First: CCOC(=O)COc1cccc(Nc2ncc(F)c(Nc3ccc4c(c3)OCCO4)n2)c1 [Compound R926482]
Second: O=C(O)COc1cccc(Nc2ncc(F)c(Nc3ccc4c(c3)OCCO4)n2)c1 [Compound R926483]
The pIC50 of the first is higher: 5.08 for the first, less than 5.00 for the second.

Compared with O=C(COc1cccc(Nc2ncc(F)c(Nc3ccc4c(c3)OCCO4)n2)c1)N1CCOCC1 [Compound R926484], O=C(COc1cccc(Nc2ncc(F)c(Nc3ccc4c(c3)OCCO4)n2)c1)N1CCNCC1 [Compound R926503] is higher in pIC50: less than 5.00 for the first, 5.59 for the second. The second is the more potent here.

Fc1cnc(Nc2cccc(OCCN3CCOCC3)c2)nc1Nc1ccc2c(c1)OCCO2 [Compound R926486] and O=C(COc1cccc(Nc2ncc(F)c(Nc3ccc4c(c3)OCCO4)n2)c1)N1CCNCC1 [Compound R926504] are within 0.2 log units of each other in pIC50: 5.76 for the first, 5.75 for the second.

Going from O=C(c1cc2cc(Nc3ncc(F)c(Nc4cccc(O)c4)n3)ccc2o1)N1CCOCC1 [Compound R926488] to CC(C)Oc1cccc(Nc2nc(Nc3ccc4oc(C(=O)N5CCOCC5)cc4c3)ncc2F)c1 [Compound R926489], the pIC50 falls from 5.61 to less than 5.00. The first is the more potent here.

Going from O=C(c1cc2cc(Nc3ncc(F)c(Nc4ccc5c(c4)OCCO5)n3)ccc2o1)N1CCNCC1 [Compound R926499] to O=C(COc1cccc(Nc2ncc(F)c(Nc3ccc4c(c3)OCCO4)n2)c1)NCCO [Compound R926505], the pIC50 falls from 6.25 to 5.94 (0.31 log units).

First: O=C(COc1cccc(Nc2ncc(F)c(Nc3cccc(O)c3)n2)c1)NCCO [Compound R926506]
Second: O=C(O)COc1ccc(Nc2ncc(F)c(Nc3ccc(OCC(=O)O)cc3)n2)cc1 [Compound R926560]
The pIC50 of the first is higher: 5.57 for the first, less than 5.00 for the second. The first is the more potent here.

CCOC(=O)c1cnc(N[C@@H](Cc2ccccc2)C(=O)OCC)nc1N[C@@H](Cc1ccccc1)C(=O)OCC [Compound R926526] and CCOC(=O)c1cnc(Nc2cccc(O)c2)nc1N[C@@H](Cc1ccccc1)C(=O)OCC [Compound R926528] cannot be ordered by pIC50: less than 5.00 for the first, less than 5.00 for the second.

CCOC(=O)c1cnc(N[C@H](C(=O)OCC)C(C)C)nc1N[C@H](C(=O)OCC)C(C)C [Compound R926527] and CCOC(=O)COc1ccc(Nc2nc(Nc3ccc(OCC(=O)OCC)cc3)c(N)c(C(=O)OCC)n2)cc1 [Compound R926567] cannot be ordered by pIC50: 4.67 for the first, less than 5.00 for the second.

Compared with O=C(O)c1cnc(Nc2cccc(O)c2)nc1NC(C(=O)O)c1ccccc1 (centres unmarked) [Compound R926535], COC(=O)c1cc2cc(Nc3ncc(F)c(Nc4ccc5[nH]c(C(=O)OC)cc5c4)n3)ccc2[nH]1 [Compound R926593] is higher in pIC50: less than 5.00 for the first, 5.89 for the second. The second is the more potent here.

CCOC(=O)COc1ccc(Nc2nc(Cl)cc(NCC(=O)OC)n2)cc1 [Compound R926555] and CCOC(=O)COc1ccc(Nc2nc(Cl)c(Cl)c(Nc3ccc(OCC(=O)OCC)cc3)n2)cc1 [Compound R926569] cannot be ordered by pIC50: less than 5.00 for the first, less than 5.00 for the second.

COC(=O)c1cnc(Nc2ccc(OCC(=O)N3CCCC3)cc2)nc1Nc1ccc(OCC(=O)N2CCCC2)cc1 [Compound R926559] and O=C(COc1ccc(Nc2ncc(F)c(Nc3ccc(OCC(=O)N4CCCC4)cc3)n2)cc1)N1CCCC1 [Compound R926563] cannot be ordered by pIC50: 4.95 for the first, less than 5.00 for the second.

CCOC(=O)COc1ccc(Nc2nc(Nc3ccc(OCC(=O)OCC)cc3)c([N+](=O)[O-])c(C(=O)OCC)n2)cc1 [Compound R926566] and C=CCNC(=O)Nc1c(Nc2ccc(OCC(=O)OCC)cc2)nc(Nc2ccc(OCC(=O)OCC)cc2)nc1C(=O)OCC [Compound R926585] cannot be ordered by pIC50: less than 5.00 for the first, less than 5.00 for the second.

CCOC(=O)COc1ccc(Nc2nc(Nc3ccc(OCC(=O)OCC)cc3)c(NC(=O)Nc3ccccc3)c(C(=O)OCC)n2)cc1 [Compound R926571] and CCOC(=O)COc1ccc(Nc2nc(Nc3ccc(OCC(=O)OCC)cc3)c(NC(=O)NC(=O)CCl)c(C(=O)OCC)n2)cc1 [Compound R926589] cannot be ordered by pIC50: less than 5.00 for the first, less than 5.00 for the second.

COC(=O)COc1ccc(Nc2ncc(F)c(Nc3ccc(OCC(=O)OC(C)(C)C)cc3)n2)cc1 [Compound R926572] and CC(C)(C)OC(=O)COc1ccc(Nc2ncc(F)c(Nc3ccc(OCC(=O)OC(C)(C)C)cc3)n2)cc1 [Compound R926574] cannot be ordered by pIC50: less than 5.00 for the first, less than 5.00 for the second.

CC(C)(C)OC(=O)COc1ccc(Nc2nc(Cl)c(Cl)c(Nc3ccc(OCC(=O)OC(C)(C)C)cc3)n2)cc1 [Compound R926576] and CCOC(=O)CNC(=O)Nc1c(Nc2ccc(OCC(=O)OCC)cc2)nc(Nc2ccc(OCC(=O)OCC)cc2)nc1C(=O)OCC [Compound R926587] cannot be ordered by pIC50: less than 5.00 for the first, less than 5.00 for the second.

CCOC(=O)COc1ccc(Nc2nc(Nc3ccc(OCC(=O)OCC)cc3)c(NC(=O)NC(=O)OCC)c(C(=O)OCC)n2)cc1 [Compound R926586] and CCOC(=O)COc1ccc(Nc2nc(Nc3ccc(OCC(=O)OCC)cc3)c(NC(=O)NC3CCCC3)c(C(=O)OCC)n2)cc1 [Compound R926588] cannot be ordered by pIC50: less than 5.00 for the first, less than 5.00 for the second.

Same assay, conditions: Homo sapiens

Fc1cnc(Nc2ccc3cc[nH]c3c2)nc1Nc1ccc2cc[nH]c2c1 [Compound R926594] was tested, and the pIC50 was 5.90.

Same assay, conditions: Homo sapiens, Jurkat

CCOC(=O)c1cc2cc(Nc3ncc(F)c(Nc4ccc(C(C)(C)C)cc4)n3)ccc2[nH]1 [Compound R926474] and CC(C)(C)c1ccc(Nc2nc(Nc3ccc4oc(C(=O)O)cc4c3)ncc2F)cc1 [Compound R926481] cannot be ordered by pIC50: 4.97 for the first, less than 5.00 for the second.

First: CCOC(=O)c1cc2cc(Nc3ncc(F)c(Nc4ccc5c(c4)OCCO5)n3)ccc2[nH]1 [Compound R926476]
Second: COC(=O)c1cc2cc(Nc3nc(Nc4ccc5c(c4)OCCO5)ncc3F)ccc2o1 [Compound R926485]
The pIC50 of the first is higher: 5.41 for the first, less than 5.00 for the second.

O=C(O)c1cc2cc(Nc3ncc(F)c(Nc4cccc(O)c4)n3)ccc2[nH]1 [Compound R926479] and COC(=O)c1cc2cc(Nc3ncc(F)c(Nc4cccc(OC(C)C)c4)n3)ccc2o1 [Compound R926487] cannot be ordered by pIC50: less than 5.00 for the first, 4.31 for the second.

Compared with CNC(=O)c1cc2cc(Nc3nc(Nc4ccc5c(c4)OCCO5)ncc3F)ccc2o1 [Compound R926491], O=C(NCCO)c1cc2cc(Nc3ncc(F)c(Nc4ccc5c(c4)OCCO5)n3)ccc2o1 [Compound R926498] is 0.32 log units lower in pIC50: 5.56 for the first, 5.24 for the second. The first is the more potent here.

c1cc2c(cc1Nc1cc(Nc3ccc4c(c3)OCCO4)nc(Nc3ccc4c(c3)OCCO4)n1)OCCO2 [Compound R926516] and COC(=O)c1cc2cc(Nc3ncc(F)c(Nc4ccc5oc(C(=O)OC)cc5c4)n3)ccc2o1 [Compound R926604] cannot be ordered by pIC50: 4.75 for the first, less than 5.00 for the second.

Oc1cccc(Nc2nc(Cl)c(Cl)c(Nc3cccc(O)c3)n2)c1 [Compound R926591] and COC(=O)Cc1ccc(Nc2ncc(F)c(Nc3ccc(CC(=O)OC)cc3)n2)cc1 [Compound R926605] cannot be ordered by pIC50: less than 5.00 for the first, less than 5.00 for the second.
